Activity calls are given as the source filed them.
Assays:
[1] = intracellular Trypanosoma cruzi inhibitors in host cells – cell-based, plate reader, cherry-pick samples, set 3, dose response (AID 651818); format: functional;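 note: compounds incubated with infected cells for about four days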
[2] = target: Nonstructural protein 1 (Influenza A virus, UniProt Q194T2); format: functional, Influenza A virus (A/California/07/2009(H1N1))
[3] = test system: INS1; assay: beta cell apoptosis inhibitors, cytokine rescue, dose response, luminescence, retest (AID 449756); format: functional, cell-based; conditions: Rattus norvegicus, INS1;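 note: cell death triggered by IL-1 beta plus TNF-alpha plus IFN-gamma mixture; protective hits raise ATP signal compared with cytokine alone wells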
[4] = target: FAD-linked sulfhydryl oxidase ALR (Homo sapiens, UniProt P55789); assay: inhibitors of human ALR sulfhydryl oxidase, dose response, biochemical, H2O2 detection, luminescence, cherry-pick (AID 493248)
FAD-linked sulfhydryl oxidase ALR, sequence (P55789 whole entry): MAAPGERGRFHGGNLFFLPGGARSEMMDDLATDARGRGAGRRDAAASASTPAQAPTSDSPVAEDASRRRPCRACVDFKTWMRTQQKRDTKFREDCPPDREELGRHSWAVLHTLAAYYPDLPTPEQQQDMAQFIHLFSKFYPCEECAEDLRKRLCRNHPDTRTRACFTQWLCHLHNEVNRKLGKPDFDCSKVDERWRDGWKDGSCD

[5] = target: Heat shock protein HSP 90-alpha (Homo sapiens, UniProt P07900); format: functional, organism-based
[6] = target: T1, DNA repair protein RAD52 homolog (Homo sapiens, UniProt P43351); format: functional, biochemical
T1 sequence (P43351 whole entry): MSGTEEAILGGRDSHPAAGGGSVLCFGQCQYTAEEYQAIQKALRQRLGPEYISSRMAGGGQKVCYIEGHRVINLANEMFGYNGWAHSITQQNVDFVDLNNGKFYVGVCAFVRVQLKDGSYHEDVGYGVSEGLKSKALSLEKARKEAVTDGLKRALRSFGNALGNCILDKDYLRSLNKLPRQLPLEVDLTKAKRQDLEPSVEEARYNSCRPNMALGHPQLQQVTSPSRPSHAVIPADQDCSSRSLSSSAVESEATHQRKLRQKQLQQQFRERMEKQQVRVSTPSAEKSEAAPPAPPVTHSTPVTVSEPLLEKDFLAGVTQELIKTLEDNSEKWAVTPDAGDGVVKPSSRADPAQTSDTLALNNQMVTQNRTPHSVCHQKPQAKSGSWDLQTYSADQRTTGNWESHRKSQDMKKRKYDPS

[7] = test system: Streptococcus sp. 'group A'; assay: growth inhibition of control SK(-) GAS strain, dose response, counter-screen for streptokinase expression inhibitor project, luminescence, kanamycin, BacTiterGlo, confirmation (AID 1900); format: functional, organism-based
[8] = target: T2, Streptokinase A (Streptococcus pyogenes serotype M1, UniProt P10520); assay: S. pyogenes streptokinase expression inhibitors, potency, dose response, plasminogen activation absorbance, OD405 (AID 1914); format: functional, Streptococcus pyogenes M1 GAS;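 note: secreted streptokinase activity via plasminogen activation per viability signal from cell pellet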
T2 sequence (P10520 whole entry): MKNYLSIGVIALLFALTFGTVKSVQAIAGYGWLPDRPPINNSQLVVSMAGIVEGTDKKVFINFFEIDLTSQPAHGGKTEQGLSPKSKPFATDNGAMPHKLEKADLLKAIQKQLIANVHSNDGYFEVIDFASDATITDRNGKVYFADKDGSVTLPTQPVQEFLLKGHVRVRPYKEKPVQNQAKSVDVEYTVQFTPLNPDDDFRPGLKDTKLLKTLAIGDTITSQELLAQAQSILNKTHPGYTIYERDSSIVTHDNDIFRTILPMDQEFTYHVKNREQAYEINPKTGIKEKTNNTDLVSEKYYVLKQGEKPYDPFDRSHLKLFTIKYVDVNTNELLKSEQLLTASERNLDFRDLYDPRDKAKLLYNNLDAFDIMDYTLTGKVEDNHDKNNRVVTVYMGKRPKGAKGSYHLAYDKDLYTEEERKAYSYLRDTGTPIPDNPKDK

[9] = test system: Streptococcus; assay: Group A Streptococcus viability loss, dose response, counter-screen for streptokinase expression inhibitor project, luminescence, BacTiterGlo (AID 1915); format: functional, organism-based;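 note: potency for reduction of bacterial viability or growth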
[10] = test system: P388/ADR; assay: cells; format: functional; conditions: Mus musculus
[11] = test system: P388; assay: cells; format: functional; conditions: Mus musculus
[12] = target: T3, RNA-binding protein pos-1 (Caenorhabditis elegans, UniProt G5EF15); assay: inhibitors of POS-1/mex-3 RNA binding, dose response, biochemical, fluorescence polarization (AID 1964);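 note: purified POS-1 fused to maltose binding protein made in E. coli; potency of compounds blocking POS-1 binding to fluorescent RNA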
T3 sequence (G5EF15 whole entry): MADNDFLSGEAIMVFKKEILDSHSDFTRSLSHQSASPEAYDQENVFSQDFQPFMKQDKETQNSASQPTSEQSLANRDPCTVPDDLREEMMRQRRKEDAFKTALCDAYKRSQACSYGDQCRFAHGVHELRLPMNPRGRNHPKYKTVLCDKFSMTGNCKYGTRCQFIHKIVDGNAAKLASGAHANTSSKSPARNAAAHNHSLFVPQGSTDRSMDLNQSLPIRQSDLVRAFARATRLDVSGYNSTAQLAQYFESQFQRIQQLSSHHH

[13] = target: T4, Zinc finger protein mex-5 (Caenorhabditis elegans, UniProt Q9XUB2); assay: MEX-5/TCR-2 RNA interaction inhibitors, dose response, biochemical, C. elegans, fluorescence polarization (AID 1960)
T4 sequence (Q9XUB2 whole entry): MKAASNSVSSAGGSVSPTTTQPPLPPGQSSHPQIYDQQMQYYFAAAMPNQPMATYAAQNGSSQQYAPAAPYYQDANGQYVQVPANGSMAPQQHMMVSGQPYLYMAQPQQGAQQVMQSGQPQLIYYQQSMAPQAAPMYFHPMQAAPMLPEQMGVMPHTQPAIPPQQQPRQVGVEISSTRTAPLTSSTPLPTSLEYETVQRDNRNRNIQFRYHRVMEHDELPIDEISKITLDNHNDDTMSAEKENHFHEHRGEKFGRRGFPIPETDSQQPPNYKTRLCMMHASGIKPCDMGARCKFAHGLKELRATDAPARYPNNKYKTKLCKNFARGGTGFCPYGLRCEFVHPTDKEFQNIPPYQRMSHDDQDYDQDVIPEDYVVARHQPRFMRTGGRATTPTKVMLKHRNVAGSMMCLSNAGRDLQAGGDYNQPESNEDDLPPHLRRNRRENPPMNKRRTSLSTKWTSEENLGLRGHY

[14] = target: Large T antigen (Simian virus 40, UniProt P03070); format: functional, Betapolyomavirus macacae;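 note: Confirmatory-stage PubChem screen for compounds that inhibit SV40 T antigen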
Large T antigen, sequence (P03070 whole entry): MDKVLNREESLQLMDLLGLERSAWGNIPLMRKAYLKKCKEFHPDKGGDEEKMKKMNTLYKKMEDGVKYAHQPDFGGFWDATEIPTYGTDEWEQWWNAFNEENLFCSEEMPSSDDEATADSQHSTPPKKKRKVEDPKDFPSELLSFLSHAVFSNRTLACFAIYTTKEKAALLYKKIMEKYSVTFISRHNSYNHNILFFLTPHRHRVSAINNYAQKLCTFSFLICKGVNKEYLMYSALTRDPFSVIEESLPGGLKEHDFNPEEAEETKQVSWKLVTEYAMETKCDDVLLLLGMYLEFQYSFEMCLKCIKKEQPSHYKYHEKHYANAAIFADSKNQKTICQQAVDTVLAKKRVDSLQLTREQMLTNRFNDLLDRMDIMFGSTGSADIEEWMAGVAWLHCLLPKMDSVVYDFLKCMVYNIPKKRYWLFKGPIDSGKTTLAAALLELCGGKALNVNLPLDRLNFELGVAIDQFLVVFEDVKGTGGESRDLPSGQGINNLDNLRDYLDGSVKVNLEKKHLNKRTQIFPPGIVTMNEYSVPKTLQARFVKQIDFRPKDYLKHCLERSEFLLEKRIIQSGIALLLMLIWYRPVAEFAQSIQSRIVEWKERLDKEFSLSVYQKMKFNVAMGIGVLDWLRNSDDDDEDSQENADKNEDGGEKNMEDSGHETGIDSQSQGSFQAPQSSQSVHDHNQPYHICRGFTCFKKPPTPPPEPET

[15] = target: T5, Rac GTPase-activating protein 1 (Homo sapiens, UniProt Q9H0H5); assay: MgcRacGAP GTPase-activating activity inhibitors, confirmation, biochemical, ADP Hunter fluorescence, primary and confirmatory (AID 624330); format: functional
T5 sequence (Q9H0H5 whole entry): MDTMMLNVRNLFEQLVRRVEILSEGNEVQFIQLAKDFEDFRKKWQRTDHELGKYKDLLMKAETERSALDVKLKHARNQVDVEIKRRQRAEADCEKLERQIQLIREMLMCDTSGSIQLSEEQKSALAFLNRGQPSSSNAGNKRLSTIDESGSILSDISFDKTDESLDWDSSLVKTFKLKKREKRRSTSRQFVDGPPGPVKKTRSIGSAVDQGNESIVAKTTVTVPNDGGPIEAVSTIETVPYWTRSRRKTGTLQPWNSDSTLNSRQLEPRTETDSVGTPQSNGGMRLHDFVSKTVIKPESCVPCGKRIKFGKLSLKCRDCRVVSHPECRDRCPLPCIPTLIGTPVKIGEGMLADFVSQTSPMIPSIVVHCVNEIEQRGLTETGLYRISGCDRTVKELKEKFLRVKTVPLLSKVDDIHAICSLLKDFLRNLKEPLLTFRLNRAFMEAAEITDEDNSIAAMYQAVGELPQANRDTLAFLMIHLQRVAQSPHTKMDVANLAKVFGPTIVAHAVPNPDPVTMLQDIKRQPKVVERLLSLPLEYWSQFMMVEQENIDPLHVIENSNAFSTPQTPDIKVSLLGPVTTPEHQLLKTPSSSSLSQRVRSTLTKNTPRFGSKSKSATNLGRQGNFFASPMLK

[16] = Luminescence Cell-Based Dose Retest to Confirm Inhibitors of Cancer Stem Cells. [Related pubchem assays (depositor defined):AID2717, AID2721]; format: functional; conditions: Homo sapiens
[17] = inhibitors of intracellular T. cruzi replication, confirmation, NIH3T3 host cells, beta-gal luminescence (AID 2044); format: functional, cell-based;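 note: intracellular parasites grown in NIH/3T3 mouse fibroblasts as host cells; luminescent beta-galactosidase reporter signal from transgenic T. cruzi replicating inside host cells; inhibitors lower the luminescence signal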
[18] = cytotoxicity toward NIH3T3 fibroblasts, dose response, counter-screen, cell-based, ATP luminescence, mouse fibroblasts (AID 2010); format: functional;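 note: cells exposed to compound for about 90 hours before reading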

Nonstructural protein 1, sequence (Q194T2 whole entry): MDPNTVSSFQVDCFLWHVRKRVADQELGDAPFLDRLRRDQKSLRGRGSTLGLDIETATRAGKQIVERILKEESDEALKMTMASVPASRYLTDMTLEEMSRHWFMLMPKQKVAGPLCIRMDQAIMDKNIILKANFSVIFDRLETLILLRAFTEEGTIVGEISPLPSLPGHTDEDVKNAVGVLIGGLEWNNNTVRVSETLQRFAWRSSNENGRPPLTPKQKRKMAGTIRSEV

C[C@H](CO)N1C[C@H](C)[C@@H](CN(C)S(=O)(=O)c2cn(C)cn2)Oc2c(cccc2N(C)C)C1=O
AC50 [1]: 15.8 µM (active)

COc1ccc(CN(C)C[C@@H]2Oc3ccc(NC(=O)Cc4ccccc4)cc3CC(=O)N([C@@H](C)CO)C[C@@H]2C)cc1
AC50 [1]: 4.08 µM (active)

CC(C)COC(=O)c1ccc2c(c1O)C(=O)c1ccccc1C2=O
IC50 [2]: 34.6 µM (active) | AC50 [3]: 10.9 µM (active)

O=C(c1ccc2c(c1)OCO2)N1CCN(c2ccccc2)CC1
AC50 [4]: 13.9 µM (active)

CCCCCCOc1ccc(N2C(=O)CC(N3CCC(C(=O)OCC)CC3)C2=O)cc1 (stereo not given)
AC50 [5]: 2.3 µM (active)

C[C@@H]1CN([C@H](C)CO)C(=O)Cc2cc(NS(=O)(=O)c3ccc(F)cc3)ccc2O[C@@H]1CN(C)S(=O)(=O)c1ccc(Cl)cc1
AC50 [1]: 2.31 µM (active)

CN(C)CCCNC(=O)c1ccc(-c2cc3nc(NCc4cccnc4)n(C)c(=O)c3s2)cc1
AC50 [6]: 13.3 µM (active)

CC1CCN(C(CC(=O)c2ccccc2)C(=O)c2ccccc2)CC1 (stereo not given)
AC50 [5]: 7.7 µM (active)

Cc1cc(C(=O)Nc2nnc(C3CCCCC3)s2)no1
AC50 [4]: 5.82 µM (active)

CN(C)CCN1CCN(c2cc(-c3cccc(Cl)c3)nc3ccnn23)CC1
AC50 [6]: 6.97 µM (active)

Cc1ccc(S(=O)(=O)Nc2cccc3c2O[C@H](CN(C)C(=O)Nc2ccc4c(c2)OCO4)[C@H](C)CN([C@H](C)CO)C3=O)cc1
AC50 [1]: 20 µM (inactive)

COc1ccc(-n2nc(C)cc2Nc2ccccc2C(=O)O)cc1
AC50 [4]: 3.72 µM (active)

CCOc1ccc(C(C)=O)cc1Cn1ccsc1=N
AC50 [6]: 4.87 µM (active)

CC(C)c1ccc2c(c1)C(=O)NC(C)(C)C2
AC50 [4]: 3.3 µM (active)

Cc1ccc(N/N=C(\C#N)C(=N)S)c(C)c1
EC50 [7]: 32.6 µM (active) | EC50 [8]: > 150 µM (not active) | EC50 [9]: 20.8 µM (active) | AC50 [5]: 1.84 µM (active)

C[C@H]1CN([C@@H](C)CO)C(=O)c2cccc(NC(=O)Nc3ccc4c(c3)OCO4)c2O[C@@H]1CN(C)Cc1ccc(C(=O)Nc2ccccc2N)cc1
AC50 [1]: 2.18 µM (active)

COc1ccc(C)cc1NC(=O)c1cc2c(CO)cnc(C)c2oc1=N
AC50 [4]: 7.55 µM (active)

COC(=O)C12OCC34C(CC5C(C)=CC(=O)C(O)C5(C)C3C(O)C1O)OC(=O)C(OC(=O)CC(C)C)C24 (stereo not given)
GI50 [10]: 0.0216 µM (active) | GI50 [11]: 0.00154 µM (active)

COc1ccc(C2=CC3=C(Br)C(=O)C(C)(OC(=O)c4ccco4)C(=O)C3=CO2)cc1 (stereo not given)
EC50 [12]: > 300 µM (not active) | EC50 [13]: 35.9 µM (active) | AC50 [5]: 4.13 µM (active)

COc1cc(/C=N/NS(=O)(=O)c2ccc(C)c([N+](=O)[O-])c2)ccc1O
IC50 [14]: 7.27 µM (active) | AC50 [4]: 0.181 µM (active) | IC50 [15]: 40.9 µM (active)

C[C@@H]1CN([C@H](C)CO)C(=O)Cc2cc(NC(=O)Nc3ccccc3)ccc2O[C@@H]1CN(C)Cc1ccc(C(=O)Nc2ccccc2N)cc1
AC50 [1]: 3.23 µM (active)

C[C@@H]1CN([C@H](C)CO)C(=O)Cc2cc(NC(=O)Nc3ccc(F)cc3)ccc2O[C@H]1CN(C)Cc1ccc(C(F)(F)F)cc1
AC50 [1]: 7.02 µM (active)

COc1ccc(C(=O)COC(=O)CN2CC(=O)Oc3ccccc32)cc1Br
IC50 [2]: 4.25 µM (active)

C[C@H](CO)N1C[C@H](C)[C@@H](CN(C)C(=O)Nc2ccc(C(F)(F)F)cc2)Oc2c(NC(=O)Nc3ccc(C(F)(F)F)cc3)cccc2C1=O
AC50 [16]: 3.73 µM (active) | AC50 [1]: 7.68 µM (active)

CC(C)(C)C(O)C(Oc1ccc(Cl)cc1)n1cncn1 (stereo not given) [TRIADIMENOL]
EC50 [17]: 1.51 µM (active) | EC50 [18]: > 60 µM (not active) | AC50 [5]: 0.29 µM (active)

COc1cc2nc(O)c(C(=O)NCCCN3CCOCC3)c(O)c2cc1OC
AC50 [6]: 15 µM (active)

O=C1c2cccc3cc4ccccc4c(c23)C(=O)N1CCNCCNCCNCCN1C(=O)c2cccc3cc4ccccc4c(c23)C1=O
GI50 [10]: < 0.0187 µM (active) | GI50 [11]: < 0.0146 µM (active)

C[C@H]1CN([C@@H](C)CO)C(=O)Cc2cc(NC(=O)NC3CCCCC3)ccc2O[C@H]1CN(C)Cc1ccc(C(=O)Nc2ccccc2N)cc1
AC50 [1]: 2.97 µM (active)

Cc1nn(-c2ccccc2)c2sc(-c3nnc(S)o3)cc12
EC50 [7]: 4.28 µM (active) | EC50 [8]: > 150 µM (not active) | EC50 [9]: 99 µM (active) | AC50 [4]: 2.63 µM (active)

Reference: ChEMBL document CHEMBL1201862, “PubChem BioAssay data set” (2004)
